From the NIST ThermoML archive (doi:10.1016/j.jct.2013.08.013)

Tests used:
[1] = xn = mol fraction of the nth substance listed; settings: 101 kPa, Liquid; for speed of sound: Frequency=2 MHz, Linear variable-path acoustic interferometer; for mass density: Vibrating tube method
[2] = 101 kPa, Liquid; for speed of sound: Frequency=2 MHz, Linear variable-path acoustic interferometer; for mass density: Vibrating tube method

Cc1ccccc1Cl [2-chlorotoluene] + CCCCO
[1]
Settings	mass density, 298.15 K [kg/m3]	mass density, 303.15 K [kg/m3]	mass density, 308.15 K [kg/m3]	speed of sound, 298.15 K [m/s]	speed of sound, 303.15 K [m/s]	speed of sound, 308.15 K [m/s]
x1 = 0.0914	837.37	833.28	829.2	1247.4	1231.4	1213.3
x1 = 0.2026	873.25	868.95	864.69	1255.5	1238.2	1219.2
x1 = 0.2888	899.51	895.11	890.72	1260.1	1241.1	1222.2
x1 = 0.3958	930.38	925.85	921.35	1264.2	1244.1	1224.3
x1 = 0.4973	958.03	953.44	948.87	1267.1	1246	1226
x1 = 0.6021	985.11	980.47	975.89	1269	1249.2	1227.4
x1 = 0.6969	1008.43	1003.83	999.22	1271.4	1250.4	1231
x1 = 0.7892	1030.29	1025.68	1021.07	1276.7	1255.4	1236.4
x1 = 0.894	1054.17	1049.55	1044.94	1285.6	1266.4	1247
x1 = 1	1077.38	1072.8	1068.21	1299.8	1283.6	1265.6

Cc1ccccc1Cl [2-chlorotoluene] + CCCO
[1]
Settings	mass density, 298.15 K [kg/m3]	mass density, 303.15 K [kg/m3]	mass density, 308.15 K [kg/m3]	speed of sound, 298.15 K [m/s]	speed of sound, 303.15 K [m/s]	speed of sound, 308.15 K [m/s]
x1 = 0.089	837.16	832.98	828.75	1219	1200.1	1181.4
x1 = 0.1947	877.01	872.53	868.14	1232	1212.4	1192.8
x1 = 0.2938	910.41	905.71	901.22	1242.5	1221.5	1201.9
x1 = 0.3841	937.91	933.15	928.51	1249.2	1228.7	1207.8
x1 = 0.4898	967.13	962.37	957.66	1257	1234.8	1213.9
x1 = 0.5918	992.79	988	983.25	1262.5	1240.5	1219.2
x1 = 0.6979	1017.16	1012.42	1007.7	1269	1246.3	1225.2
x1 = 0.7955	1037.96	1033.25	1028.56	1275.3	1253.4	1234
x1 = 0.8932	1057.42	1052.78	1048.12	1284.4	1264.7	1245.4
x1 = 1	1077.38	1072.8	1068.21	1299.8	1283.6	1265.6

CCCCO [butan-1-ol]
[2]
Settings	mass density [kg/m3]	speed of sound [m/s]
298.15 K	805.95	1238.9
303.15 K	802.11	1223.4
308.15 K	798.24	1206.8

CCCCO [butan-1-ol] + Cc1ccccc1Cl
[1], x2 = 0
Settings	mass density [kg/m3]	speed of sound [m/s]
298.15 K	805.95	1238.9
303.15 K	802.11	1223.4
308.15 K	798.24	1206.8

CCCCCCCO [heptan-1-ol]
[2]
Settings	mass density [kg/m3]	speed of sound [m/s]
298.15 K	818.79	1326.5
303.15 K	815.21	1313.6
308.15 K	811.62	1293.1

CCCCCCCO [heptan-1-ol] + Cc1ccccc1Cl
[1], x2 = 0
Settings	mass density [kg/m3]	speed of sound [m/s]
298.15 K	818.79	1326.5
303.15 K	815.21	1313.6
308.15 K	811.62	1293.1

CCCCCCO [hexan-1-ol]
[2]
Settings	mass density [kg/m3]	speed of sound [m/s]
298.15 K	815.31	1303.2
303.15 K	811.7	1286.4
308.15 K	808.06	1269.7

CCCCCCO [hexan-1-ol] + Cc1ccccc1Cl
[1], x2 = 0
Settings	mass density [kg/m3]	speed of sound [m/s]
298.15 K	815.31	1303.2
303.15 K	811.7	1286.4
308.15 K	808.06	1269.7

CCCCCO [pentan-1-ol]
[2]
Settings	mass density [kg/m3]	speed of sound [m/s]
298.15 K	810.82	1276.2
303.15 K	807.1	1259.5
308.15 K	803.38	1248.1

CCCCCO [pentan-1-ol] + Cc1ccccc1Cl
[1], x2 = 0
Settings	mass density [kg/m3]	speed of sound [m/s]
298.15 K	810.82	1276.2
303.15 K	807.1	1259.5
308.15 K	803.38	1248.1

CCCO [propan-1-ol]
[2]
Settings	mass density [kg/m3]	speed of sound [m/s]
298.15 K	799.65	1206.5
303.15 K	795.65	1188.6
308.15 K	791.65	1171.8

CCCO [propan-1-ol] + Cc1ccccc1Cl
[1], x2 = 0
Settings	mass density [kg/m3]	speed of sound [m/s]
298.15 K	799.65	1206.5
303.15 K	795.65	1188.6
308.15 K	791.65	1171.8
